The source of these data is patent publication US20250275959A1, “COMPOUNDS AND METHODS OF THEIR USE” (LEXICON PHARMACEUTICALS, INC., priority 2024, published 2025).

SMILES strings stand for the structures. Bounds are passed on as bounds.

Assay [1] has as its target T1, hACSL5 (Homo sapiens (Human), UniProt Q9ULC5). Kind of assay: Human ACSL5 coupled enzyme Amplex Red assay. It is filed as biochemical. The settings on record: read-out: hACSL5 IC50. The essentials: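 Amplex Red coupled readout: 1 mM ATP, 25 μM oleate and 30 μM CoA were added to compound-preincubated enzyme (20 nM, residues 33-683, insect-cell expressed, His-tagged) with coupling peroxidase and acyl-CoA oxidase at pH 7.6. Signal was read at 535/590 nm after 10 minutes at 25° C., and Hill fits yielded half-maximal and maximal inhibition.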
Target sequence in this assay (Q9ULC5 33-683): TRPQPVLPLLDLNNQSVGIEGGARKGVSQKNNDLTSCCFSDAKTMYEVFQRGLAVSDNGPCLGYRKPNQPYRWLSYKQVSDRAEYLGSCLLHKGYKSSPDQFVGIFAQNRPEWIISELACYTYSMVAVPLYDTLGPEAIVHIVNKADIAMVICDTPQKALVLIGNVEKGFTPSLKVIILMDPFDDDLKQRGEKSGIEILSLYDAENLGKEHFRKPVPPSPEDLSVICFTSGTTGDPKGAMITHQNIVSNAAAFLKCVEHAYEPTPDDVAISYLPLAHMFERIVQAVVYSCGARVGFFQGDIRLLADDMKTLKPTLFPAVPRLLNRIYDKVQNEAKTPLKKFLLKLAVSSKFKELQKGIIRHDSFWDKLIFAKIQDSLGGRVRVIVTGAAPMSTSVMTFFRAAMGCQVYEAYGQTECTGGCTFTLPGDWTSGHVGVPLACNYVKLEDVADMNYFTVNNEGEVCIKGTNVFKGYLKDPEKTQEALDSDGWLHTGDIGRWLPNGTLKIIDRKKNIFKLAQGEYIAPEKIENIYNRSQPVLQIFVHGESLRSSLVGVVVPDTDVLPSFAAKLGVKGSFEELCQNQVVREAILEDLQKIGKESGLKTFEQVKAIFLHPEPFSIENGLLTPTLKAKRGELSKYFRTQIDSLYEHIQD

Assay [2] has as its target T1, hACSL5. Kind of assay: Cell-based assay (CBA) with B12FA in hACSL5-transfected Expi293F / FlpIn TRex293 cells. The settings on record: hACSL5-expressing cells. The procedure, abridged:
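hACSL5-expressing Expi293F or tetracycline-induced FlpIn TRex293 cells, serum- and glucose-starved 1 h, then treated 3 h with serially diluted compound plus 20 µM B12FA. After fixation, 630/520 nm emission ratio (ex 485 nm) gave % inhibition versus no-inhibitor and 10 µM compound/non-induced controls; IC50 by Hill fit.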
Target sequence in this assay (Q9ULC5 whole entry, the tested form may be a part): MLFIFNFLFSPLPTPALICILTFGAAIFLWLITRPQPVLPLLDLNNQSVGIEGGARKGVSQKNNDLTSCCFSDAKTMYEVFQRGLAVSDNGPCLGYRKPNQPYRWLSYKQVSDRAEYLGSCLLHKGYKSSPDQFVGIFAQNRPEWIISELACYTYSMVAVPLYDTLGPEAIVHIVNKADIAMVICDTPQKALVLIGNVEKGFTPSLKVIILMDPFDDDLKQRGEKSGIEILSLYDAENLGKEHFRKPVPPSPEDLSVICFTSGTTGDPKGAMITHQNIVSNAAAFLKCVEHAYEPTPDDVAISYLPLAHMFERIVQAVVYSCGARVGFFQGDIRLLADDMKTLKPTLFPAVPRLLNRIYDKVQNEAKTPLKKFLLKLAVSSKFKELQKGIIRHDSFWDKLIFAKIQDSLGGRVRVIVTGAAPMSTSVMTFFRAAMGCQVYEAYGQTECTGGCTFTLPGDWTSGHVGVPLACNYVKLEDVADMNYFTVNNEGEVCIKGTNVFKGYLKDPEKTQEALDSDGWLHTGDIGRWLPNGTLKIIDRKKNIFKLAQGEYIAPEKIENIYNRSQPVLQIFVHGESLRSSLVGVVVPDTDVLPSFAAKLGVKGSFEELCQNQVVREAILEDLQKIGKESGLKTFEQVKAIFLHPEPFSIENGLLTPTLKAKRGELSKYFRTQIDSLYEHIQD

In general, IC50 refers to the point on the concentration scale where inhibition reaches its midpoint. As to `CC[C@@H](Oc1ccc(C(=O)NS(=O)(=O)c2ccc(OCCN(C)C)cc2)c(F)c1F)c1ccc(OCC2CC2)cn1` [Compound B, (R)-4-(1-(5-(cyclopropylmethoxy)pyridin-2-yl)propoxy)-N-((4-(2-(dimethylamino)ethoxy)phenyl)sulfonyl)-2,3-difluorobenzamide], the IC50 was below 100 nM at hACSL5 [1] and 100 to 500 nM on hACSL5 [2].

`CC[C@@H](Oc1ccc(C(=O)NS(=O)(=O)N2CCC(OCCN(C)C)CC2)c(F)c1F)c1ccc(Oc2ccccn2)cn1` [Compound C, (R)-N-((4-(2-(dimethylamino)ethoxy)piperidin-1-yl)sulfonyl)-2,3-difluoro-4-(1-(5-(pyridin-2-yloxy)pyridin-2-yl)propoxy)benzamide]: the IC50 was below 100 nM on hACSL5 [1] and 100 to 500 nM at hACSL5 [2].

In the case of `CC[C@@H](Oc1ccc(C(=O)NS(=O)(=O)N2CCN(C)CC2)c(F)c1F)c1ccc(Oc2ccccn2)cn1` [Compound D, (R)-2,3-difluoro-N-((4-methylpiperazin-1-yl)sulfonyl)-4-(1-(5-(pyridin-2-yloxy)pyridin-2-yl)propoxy)benzamide], the IC50 on hACSL5 [1] and at hACSL5 [2] was below 100 nM each time.
